Tests used:
Assay in all cases: relative viability (nuclei count vs DMSO), 5 days (fraction); higher = more cells survive
Imatinib + Vorinostat = compound: Cc1ccc(NC(=O)c2ccc(CN3CCN(C)CC3)cc2)cc1Nc1nccc(-c2cccnc2)n1 [Imatinib] + O=C(CCCCCCC(=O)Nc1ccccc1)NO [Vorinostat] (partner 1 µM)
Procedure, shortened: (§1)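 Relative viability equals treated-well nuclei counts divided by vehicle-well nuclei counts. Counts came from 4× images of lung cancer cell lines grown in 1536-well plates for 5 days after pin-tool dosing on the day after seeding. Dosing used one drug alone or a fixed anchor-drug dose plus five library-drug doses (not always all listed) in √10 steps, and values are medians of duplicate plates.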

Imatinib + Lapatinib = compound: Cc1ccc(NC(=O)c2ccc(CN3CCN(C)CC3)cc2)cc1Nc1nccc(-c2cccnc2)n1 [Imatinib] + CS(=O)(=O)CCNCc1ccc(-c2ccc3ncnc(Nc4ccc(OCc5cccc(F)c5)c(Cl)c4)c3c2)o1 [Lapatinib] (partner 2 µM)
Procedure, shortened: as §1

Imatinib + Trametinib = compound: Cc1ccc(NC(=O)c2ccc(CN3CCN(C)CC3)cc2)cc1Nc1nccc(-c2cccnc2)n1 [Imatinib] + CC(=O)Nc1cccc(-n2c(=O)n(C3CC3)c(=O)c3c(Nc4ccc(I)cc4F)n(C)c(=O)c(C)c32)c1 [Trametinib] (partner 0.02 µM)
Procedure, shortened: as §1

Imatinib + Phenformin = compound: Cc1ccc(NC(=O)c2ccc(CN3CCN(C)CC3)cc2)cc1Nc1nccc(-c2cccnc2)n1 [Imatinib] + N=C(N)NC(=N)NCCc1ccccc1 [Phenformin] (partner 250 µM)
Procedure, shortened: as §1

| Cell Line | relative viability (Imatinib + Vorinostat; first compound 0.02 µM) | relative viability (Imatinib + Vorinostat; first compound 0.06325 µM) | relative viability (Imatinib + Vorinostat; first compound 0.2 µM) | relative viability (Imatinib + Vorinostat; first compound 0.6325 µM) | relative viability (Imatinib + Vorinostat; first compound 2 µM) | relative viability (Imatinib + Lapatinib; first compound 0.02 µM) | relative viability (Imatinib + Lapatinib; first compound 0.06325 µM) | relative viability (Imatinib + Lapatinib; first compound 0.2 µM) | relative viability (Imatinib + Lapatinib; first compound 2 µM) | relative viability (Imatinib + Trametinib; first compound 0.02 µM) | relative viability (Imatinib + Trametinib; first compound 0.06325 µM) | relative viability (Imatinib + Trametinib; first compound 0.2 µM) | relative viability (Imatinib + Trametinib; first compound 0.6325 µM) | relative viability (Imatinib + Trametinib; first compound 2 µM) | relative viability (Imatinib + Phenformin; first compound 0.02 µM) | relative viability (Imatinib + Phenformin; first compound 0.06325 µM) | relative viability (Imatinib + Phenformin; first compound 0.2 µM) | relative viability (Imatinib + Phenformin; first compound 0.6325 µM) | relative viability (Imatinib + Phenformin; first compound 2 µM) | relative viability (Imatinib + Lapatinib; first compound 0.6325 µM) |
| --- | --- | --- | --- | --- | --- | --- | --- | --- | --- | --- | --- | --- | --- | --- | --- | --- | --- | --- | --- | --- |
| HCC-78 | 0.417 | 0.344 | 0.383 | 0.447 | 0.492 | 0.924 | 0.467 | 0.676 | 1.04 | 0.837 | 0.613 | 0.9 | 0.755 | 0.881 | 0.695 | 0.674 | 0.719 | 0.591 | 0.641 | – |
| HCC-366 | 0.421 | 0.307 | 0.467 | 0.369 | 0.368 | 1.3 | – | 1.33 | 1.04 | 0.423 | 0.346 | 0.45 | 0.321 | 0.432 | 0.64 | – | 0.637 | 0.631 | 0.579 | 1.03 |
| HCC-827 | 0.797 | 0.906 | 0.858 | 0.788 | 0.684 | 0.206 | 0.162 | 0.211 | 0.191 | 0.483 | 0.517 | 0.646 | 0.562 | 0.515 | 0.432 | 0.481 | 0.475 | 0.37 | 0.403 | 0.179 |
| HOP-62 | 0.884 | – | 0.83 | 0.562 | 0.68 | 1.03 | – | 0.999 | 0.991 | 0.376 | – | 0.359 | 0.357 | 0.401 | 0.77 | – | 0.858 | 0.613 | 0.66 | 0.935 |
| IA-LM | – | 0.357 | 1.14 | 1.16 | 0.923 | 1.01 | 1.23 | 0.656 | 0.719 | – | – | – | – | – | – | – | – | – | – | 1.31 |
| LC-2-ad | 0.73 | – | 0.754 | 0.707 | 0.693 | 0.933 | 0.886 | 0.884 | 0.935 | 0.956 | – | 1.01 | 0.973 | 0.908 | 0.626 | 0.603 | – | 0.603 | 0.557 | 1.02 |
| LCLC-97TM1 | 0.798 | – | 0.959 | 0.855 | 0.767 | – | – | 0.958 | 0.734 | 0.235 | – | 0.183 | 0.207 | 0.172 | 0.409 | – | 0.458 | 0.498 | 0.437 | 0.878 |
| LCLC-103H | 0.768 | 0.584 | 0.814 | 0.766 | 0.779 | – | – | – | – | 0.752 | 0.673 | 0.742 | 0.655 | 0.658 | 0.342 | 0.325 | 0.347 | 0.316 | 0.255 | – |
| LK-2 | 0.323 | 0.246 | 0.286 | – | 0.159 | 1.02 | 0.625 | 1.11 | 0.967 | 0.783 | 0.61 | 0.919 | – | 0.87 | 0.447 | 0.413 | 0.378 | 0.439 | 0.46 | 0.486 |
| LOU-NH91 | 0.948 | 1.08 | 0.938 | 0.885 | 0.895 | 0.793 | 0.775 | 0.792 | 0.766 | 0.801 | 0.782 | 0.819 | 0.83 | 0.754 | 0.679 | 0.693 | 0.675 | 0.679 | 0.665 | 0.765 |
| NCI-H441 | 0.96 | 1.07 | 0.893 | 0.858 | 0.737 | – | – | – | – | 0.537 | 0.459 | 0.572 | 0.517 | 0.37 | 0.755 | 0.747 | 1.02 | 0.958 | 0.879 | – |
| NCI-H838 | 0.77 | 0.786 | 0.74 | 0.708 | 0.76 | – | – | – | – | 0.504 | 0.549 | 0.608 | 0.569 | 0.486 | 0.555 | 0.668 | 0.64 | 0.619 | 0.596 | – |
| NCI-H1299 | – | – | – | – | – | 0.999 | 1 | 0.988 | 0.988 | – | – | – | – | – | – | – | – | – | – | 0.956 |
| NCI-H1563 | – | – | – | – | – | 1.01 | 0.699 | 0.98 | – | – | – | – | – | – | 0.634 | 0.648 | 0.658 | 0.607 | 0.625 | 0.869 |
| NCI-H1648 | 0.503 | 0.272 | 0.422 | 0.268 | 0.476 | – | – | – | – | 0.422 | 0.364 | 0.459 | 0.301 | 0.478 | – | – | – | – | – | – |
| NCI-H1703 | – | – | – | – | – | 1.01 | 1.1 | 0.439 | 0.281 | – | – | – | – | – | – | – | – | – | – | 0.276 |
| NCI-H1792 | – | – | – | – | – | 0.859 | 1.08 | 0.954 | 0.838 | 0.534 | 0.311 | 0.521 | – | 0.427 | 0.262 | 0.237 | 0.233 | 0.235 | 0.35 | 0.942 |
| NCI-H2023 | 0.846 | 0.376 | 0.615 | – | 0.614 | – | – | – | – | 0.729 | 0.6 | 0.564 | – | 0.618 | 0.503 | 0.391 | 0.356 | 0.341 | 0.342 | – |
| NCI-H2342 | 0.766 | 0.789 | 0.772 | 0.865 | 0.745 | – | – | – | – | 0.847 | 0.814 | 0.869 | 0.828 | 0.853 | 0.633 | 0.57 | 0.587 | 0.573 | 0.561 | – |
